The values below come from patent US10214545B2, “Amido-substituted imidazopyridazines useful in the treatment of hyper-proliferative and/or angiogenesis disorders” (BAYER PHARMA AKTIENGESELLSCHAFT, priority 2014, dated 2019).

The IC50 is the concentration at which inhibition is half-maximal. Low readings indicate higher potency, high ones lower potency.

In test [1] the target is T1, human full-length MKNK1 (Homo sapiens (Human), UniProt Q9BUB5, T344D). The experiment in a line: MKNK1 kinase high ATP assay (TR-FRET, 2 mM ATP). In kind it is biochemical. Particulars: 15 min preincubation, GST-MKNK1 (T344D). As for the experimental part: MKNK1-inhibitory activity at high ATP of compounds of the present invention after their preincubation with MKNK1 was quantified employing the TR-FRET-based MKNK1 high ATP assay as described in the following paragraphs.
T1 sequence (Q9BUB5 other isoform, or with tags, fused parts or gaps T344D): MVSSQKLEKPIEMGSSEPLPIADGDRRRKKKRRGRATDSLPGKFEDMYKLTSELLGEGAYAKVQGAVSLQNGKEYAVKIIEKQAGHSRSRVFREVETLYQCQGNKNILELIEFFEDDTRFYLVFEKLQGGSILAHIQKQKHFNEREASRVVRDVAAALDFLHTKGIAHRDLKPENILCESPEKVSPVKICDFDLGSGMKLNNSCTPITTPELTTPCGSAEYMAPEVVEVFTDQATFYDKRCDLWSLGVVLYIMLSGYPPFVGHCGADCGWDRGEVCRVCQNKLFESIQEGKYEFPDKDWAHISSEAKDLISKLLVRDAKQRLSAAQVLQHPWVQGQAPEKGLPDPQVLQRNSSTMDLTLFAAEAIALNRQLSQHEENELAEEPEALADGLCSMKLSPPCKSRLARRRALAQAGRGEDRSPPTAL
As substrate for the kinase reaction the biotinylated peptide biotin-Ahx-[…]
(§1) For the assay 50 nL of a 100 fold concentrated solution of the test compound in DMSO was pipetted into a black low volume 384 well microtiter plate (Greiner Bio-One, Frickenhausen, Germany), 2 μL of a solution of MKNK1 in aqueous assay buffer [50 mM HEPES pH 7.5, 5 mM magnesium chloride, 1.0 mM dithiothreitol, 0.005% (v/v) Nonidet-P40 (Sigma)] was added and the mixture was incubated for 15 min at 22° C. to allow pre-binding of the test compounds to the enzyme before the start of the kinase reaction. Then the kinase reaction was started by the addition of 3 μL of a solution of adenosine-tri-phosphate (ATP, 3.3 mM=>final conc. in the 5 μL assay volume is 2 mM) and substrate (0.1 μM=>final conc. in the 5 μL assay volume is 0.06 μM) in assay buffer and the resulting mixture was incubated for a reaction time of 30 min at 22° C. The concentration of MKNK1 was adjusted depending of the activity of the enzyme lot and was chosen appropriate to have the assay in the linear range, typical concentrations were in the range of 0.003 μg/mL. The reaction was stopped by the addition of 5 μL of a solution of TR-FRET detection reagents (5 nM streptavidine-XL665 [Cisbio Bioassays, Codolet, France] and 1 nM anti-ribosomal protein S6 (pSer236)-antibody from Invitrogen [#44921G] and 1 nM LANCE EU-W1024 labeled ProteinG [Perkin-Elmer, product no. AD0071]) in an aqueous EDTA-solution (100 mM EDTA, 0.1% (w/v) bovine serum albumin in 50 mM HEPES pH 7.5).
(§2) The resulting mixture was incubated for 1 h at 22° C. to allow the formation of complex between the phosphorylated biotinylated peptide and the detection reagents. Subsequently the amount of phosphorylated substrate was evaluated by measurement of the resonance energy transfer from the Eu-chelate to the streptavidine-XL.

Test [2] addresses T1, human full-length MKNK1. The experiment in a line: MKNK1 kinase assay (TR-FRET, 10 μM ATP). Particulars: 15 min preincubation, GST-MKNK1 (T344D). In kind it is biochemical. Here is the method:
MKNK1-inhibitory activity of compounds of the present invention was quantified employing the MKNK1 TR-FRET assay as described in the following paragraphs. […] As substrate for the kinase reaction the biotinylated peptide biotin-Ahx-[…]
as §1, with “Then the kinase reaction was started by the addition of 3 μL of a solution of adenosine-tri-phosphate (ATP, 3.3 mM=>final conc. in the 5 μL assay volume is 2 mM) and substrate (0.1 μM=>final conc. in the 5 μL assay volume is 0.06 μM) in assay buffer and the resulting mixture was incubated for a reaction time of 30 min at 22° C.” left out, “0.05 μg/mi.” for “0.003 μg/mL.”, “[…]” for “S6”
as §2
For orientation: In TR-FRET formats the signal depends on donor and acceptor labels being close together.

For the molecule `CN(C)CCCNC(=O)c1ccc2ncc(-c3cc4ccccc4o3)n2n1` [Example 10, 3-(1-Benzofuran-2-yl)-N-[3-(dimethylamino)propyl]imidazo[1,2-b]pyridazine-6-carboxamide], the IC50 in test [1] was 7.9 nM; in test [2], 3.3 nM.

`COCCNC(=O)c1ccc2ncc(-c3cc4ccccc4o3)n2n1` [Example 15, 3-(1-Benzofuran-2-yl)-N-(2-methoxyethyl)imidazo[1,2-b]pyridazine-6-carboxamide]: the values for the IC50 in test [1] and in test [2] were 15 nM and 8 nM, respectively.

On to `CN(Cc1ccccc1)C(=O)c1ccc2ncc(-c3cc4ccccc4o3)n2n1` [Example 16, 3-(1-Benzofuran-2-yl)-N-benzyl-N-methylimidazo[1,2-b]pyridazine-6-carboxamide], for which the figures for the IC50 in test [1] and in test [2] were 23 nM and 8.8 nM, respectively.

Consider `CC(C)[C@@H](CO)NC(=O)c1ccc2ncc(-c3cc4ccccc4o3)n2n1` [Example 18, 3-(1-Benzofuran-2-yl)-N-[(2S)-1-hydroxy-3-methylbutan-2-yl]imidazo[1,2-b]-pyridazine-6-carboxamide], for which the IC50 turned out to be 42 nM in test [1] and 1.3 nM in test [2].

Take `CN1CCN(C(=O)c2ccc3ncc(-c4cc5c(N6CCOCC6)nccc5o4)n3n2)CC1` [Example 4, (4-Methylpiperazin-1-yl){3-[4-(morpholin-4-yl)furo[3,2-c]pyridin-2-yl]imidazo-[1,2-b]pyridazin-6-yl}methanone]: the results for the IC50 in test [1] and in test [2] were 280 nM and 110 nM, respectively.

With `O=C(NCc1ccccc1)c1ccc2ncc(-c3cc4ccccc4o3)n2n1` [Example 14, 3-(1-Benzofuran-2-yl)-N-benzylimidazo[1,2-b]pyridazine-6-carboxamide], the IC50 in test [1] was 12 nM; in test [2], 5.2 nM.

For the molecule `CN(C)CCN(C)C(=O)c1ccc2ncc(-c3cc4c(N5CCOCC5)nccc4o3)n2n1` [Example 3, N-[2-(dimethylamino)ethyl]-N-methyl-3-[4-(morpholin-4-yl)furo[3,2-c]pyridin-2-yl]imidazo[1,2-b]pyridazine-6-carboxamide], the IC50 turned out to be 140 nM in test [1] and 88 nM in test [2].

As to `C[C@H](CO)NC(=O)c1ccc2ncc(-c3cc4ccccc4o3)n2n1` [Example 11, 3-(1-Benzofuran-2-yl)-N-[(2R)-1-hydroxypropan-2-yl]imidazo[1,2-b]pyridazine-6-carboxamide], the concentration for half-maximal inhibition (IC50) in test [1] is 8.8 nM; in test [2], 4.1 nM.

As to `CN(C)CCNC(=O)c1ccc2ncc(-c3cc4ccccc4o3)n2n1` [Example 17, 3-(1-Benzofuran-2-yl)-N-[2-(dimethylamino)ethyl]imidazo[1,2-b]pyridazine-6-carboxamide], the results for the IC50 in test [1] and in test [2] were 34 nM and 1.7 nM, respectively.

Regarding `CC(C)[C@H](CO)NC(=O)c1ccc2ncc(-c3cc4ccccc4o3)n2n1` [Example 13, 3-(1-Benzofuran-2-yl)-N-[(2R)-1-hydroxy-3-methylbutan-2-yl]imidazo[1,2-b]-pyridazine-6-carboxamide], the results for the IC50 in test [1] and in test [2] were 12 nM and 6.8 nM, respectively.

In the case of `COCCCNC(=O)c1ccc2ncc(-c3cc4ccccc4o3)n2n1` [Example 12, 3-(1-Benzofuran-2-yl)-N-(3-methoxypropyl)imidazo[1,2-b]pyridazine-6-carboxamide], the IC50 amounted to 9.5 nM in test [1] and 4.9 nM in test [2].
